How the values were obtained:
[1] = test system: primary rat cortical cultures; experiment: Tissue culture properties of primary rat cortical cultures; format: cell-based; conditions: low doses of up to 10 ng/ml in culture
[2] = test system: CAT; experiment: In vivo upregulation of CAT in rat brain (Western immunoblot); design: species or system Sprague-Dawley rats; conditions: for Fold Upregulation of CAT: relative to vehicle
Experimental: (§1) In vivo experiments were carried out in Sprague-Dawley rats (300-325 g) with solutions of L-aspartic acid. The animals were injected intravenously (iv) via the tail vein with L-aspartic acid. Each animal received one injection of L-aspartic acid in normal saline at total dose equivalent of 0.00, 0.75, 1.50, 3.00, and 6.00 mg L-aspartic acid/kg body weight or orally by gavage at a dose equivalent of 0.00 or 60.0 mg/kg body weight. The animals were sacrificed by decapitation at 6 hours post injection and dissected to isolate the brain organs, which were frozen at −70° C. for subsequent analysis by Western immunoblots.
(§2) Each brain tissue was thawed and homogenized in a Down's homogenizer using ten volumes of homogenizer buffer (see, Adams et al., […], 77: 221-233 (2000); buffer as described in Adams et al., J. Leukoc. Biol., 62: 865-875 ([…])) to obtain a crude cytoplasmic fraction. The brain tissue homogenates were centrifuged (14,000×g for 5 minutes at 4° C.) to yield the supernatant purified cytoplasmic protein fractions for Western immunoblot analysis as described in Adams et al. (J. Cell. Biochem., 77: 221-233 (2000)). A 10 μg sample of each protein fraction was then separated by SDS polyacrylamide gel electrophoresis (SDS-PAGE) and analyzed for SOD and CAT content by Western blot assay as above.
(§3) Control for measurement of unstimulated levels of SOD were obtained from vehicle-only (i.e., no L aspartic acid), injected or gavaged rats that were sacrificed at 6 hours post injection. […] Standard quantities of each cytoplasmic fraction (10 μg) were loaded on a lane of a gel for electrophoretic separation and Western immunoblot analysis (Adams et al., J. Cell. Biochem., 77: 221-233 (2000)). The stained gels were photographed and scanned by laser densitometry to quantify intensities in comparison to enzyme levels for control vehicle treated rats.
(§4) The data are expressed as a fold increase relative to control animals that received vehicle only. Intravenous (i.v.) injections were administered as 0.3 ml in normal saline during five minutes. Oral doses were administered as a solution in 1 ml saline by gavage.

[3] = test system: SOD; experiment: Upregulation of SOD in primary rat cortical cultures (Western immunoblot, laser densitometry); format: cell-based; conditions: for Upregulation (fold increase) SOD: 5 hours, relative to untreated control cultures
Experimental: (§5) Primary rat cortical cultures were obtained by growing newborn rat brain cortical cells in Delbecco's modified Eagle medium supplemented with 100 units/ml of penicillin G, 100 μg/ml of streptomycin, and 10% fetal calf serum. The cells were isolated from the E-21 cortex of rat brain, plated at a density of 1×10^5 per ml and grown to confluence within four to five days in an atmosphere containing air and 5% CO2 at 37° C. as described in Cornell-Bell et al., Science, 247: 470-473 (1990) and Cell Calcium, 12: 185-204 (1991). Cultures were grown in 20 ml flasks as a monolayer and then exposed to various concentrations of L-aspartic acid for studies of the effect on upregulation of the gene for SOD. Cultures of the rat brain cortical cells were incubated with 0.00, 0.01, 0.13, 1.30, and 13.30 μg/ml L-aspartic acid for durations of 5 hours. Control cultures were treated in the same manner, but were not incubated with L-aspartic acid.
(§6) Cytoplasmic proteins were isolated according to published methods (Adams et al., J. Leukoc. Biol., 62: 865-873 (1997)). The cell cultures were washed once in phosphate buffer saline (PBS) containing 20 mM EDTA and then suspended in 250 μl of freshly prepared lysis buffer (20 mM Hepes, pH 7.9, 10 mM KCl, 300 mM NaCl, 1 mM MgCl2, 0.1% Triton X-100 nonionic detergent, 20% glycerol, 0.5 mM dithiothreitol (DTT), freshly supplemented with inhibitors as described in Adams et al., […]., 77: 221-233 (2000)). The suspensions were then incubated for at least 10 minutes on ice to lyse cells and then centrifuged (14,000×g for 5 minutes at 4° C.) to pellet cell debris. The supernatant cytoplasmic fractions were removed and stored as aliquots at −80° C. for analysis.
(§7) The cytoplasmic proteins were separated by SDS-PAGE using 5 μg/lane on the gels for analysis by Western immunoblots. […] SOD expression was detected in the Western blots using anti-SOD rabbit polyclonal antibody (Rockland, Inc., Gilbertville, Pa.). The Western blots were also analyzed by laser densitometry to quantify SOD protein upregulation. The control in these experiments was an identical culture flask, which was treated only with vehicle (i.e., buffer, no L-aspartic acid).

[4] = test system: SOD; experiment: In vivo upregulation of SOD in rat brain (Western immunoblot); design: species or system Sprague-Dawley rats; conditions: for Fold Upregulation of SOD: relative to vehicle
Experimental: as §1, §2, §3, §4

[5] = test system: CAT; experiment: Upregulation of CAT in primary rat cortical cultures (Western immunoblot, laser densitometry); format: cell-based; conditions: for Upregulation (fold increase) CAT: 5 hours, relative to untreated control cultures
Experimental: [The source words this procedure for another target and reports this target under the same test.] as §5, §6, §7

[6] = test system: Sprague-Dawley rats; experiment: In vivo observations of toxicity and behaviour after dosing; conditions: 60 mg/Kg oral, rat
Experimental: as §1
At 6 mg/Kg, upregulation of CAT became higher than SOD. The compound is also active orally, but in that case, a dose of 60 mg/Kg must be used in the rat to see an effect.

[7] = 0.75 mg/kg i.v., rat brain, 6 hours post injection
[8] = 1.50 mg/kg i.v., rat brain, 6 hours post injection
[9] = 3.00 mg/kg i.v., rat brain, 6 hours post injection
[10] = 6.00 mg/kg i.v., rat brain, 6 hours post injection
[11] = 60.00 mg/kg oral (gavage), rat brain, 6 hours

N[C@@H](CC(=O)O)C(=O)O [Aspartic Acid, L-aspartic acid]
effect on any aspects of tissue culture properties [1]: no effect | Fold Upregulation of CAT [2, 7]: 1.0 fold | Fold Upregulation of CAT [2, 8]: 1.0 fold | Fold Upregulation of CAT [2, 9]: 1.2 fold | Fold Upregulation of CAT [2, 10]: 2.5 fold | Fold Upregulation of CAT [2, 11]: 3.5 fold | i.v. dose that must be injected before upregulation of CAT is observed ([2]; i.v., rat brain): 3 mg/kg | oral dose that must be used to see an effect (CAT upregulation) ([2]; oral, rat): 60 mg/kg | Upregulation (fold increase) SOD ([3]; 0.01 μg/ml): 1.0 fold increase | SOD upregulation ([3]; 130 ng/ml): upregulation of SOD | Upregulation (fold increase) SOD ([3]; 0.13 μg/ml): 1.6 fold increase | SOD upregulation ([3]; 1.3 μg/ml): upregulated | Upregulation (fold increase) SOD ([3]; 1.30 μg/ml): 2.1 fold increase | SOD increase by Western blot ([3]; 13.3 μg/ml): substantial increase | Upregulation (fold increase) SOD ([3]; 13.30 μg/ml): 3.5 fold increase | effect on SOD upregulation ([3]; low doses of up to 10 ng/ml in culture): no effect | Fold Upregulation of SOD [4, 7]: 1.0 fold | Fold Upregulation of SOD [4, 8]: 1.0 fold | Fold Upregulation of SOD [4, 9]: 1.3 fold | Fold Upregulation of SOD [4, 10]: 1.3 fold | Fold Upregulation of SOD [4, 11]: 2.9 fold | i.v. dose that must be injected before upregulation of SOD is observed ([4]; i.v., rat brain): 3 mg/kg | oral dose that must be used to see an effect (SOD upregulation) ([4]; oral, rat): 60 mg/kg | Upregulation (fold increase) CAT ([5]; 0.01 μg/ml): 1.0 fold increase | Upregulation (fold increase) CAT ([5]; 0.13 μg/ml): 1.0 fold increase | CAT upregulation ([5]; 1.3 μg/ml): upregulated | Upregulation (fold increase) CAT ([5]; 1.30 μg/ml): 2.3 fold increase | Upregulation (fold increase) CAT ([5]; 13.30 μg/ml): 3.7 fold increase | toxic effect [6]: no toxic effect

Source: patent publication US20050130881A1, “Single amino acid based compounds for counteracting effects of reactive oxygen species and free radicals” (priority 2001, published 2005)
